Experimental data from PubChem BioAssay (NCI).
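Where inhibition never reached the appropriate level, the endpoint shown equals the highest concentration tested. Otherwise, values were interpolated linearly from a five-concentration, 48-hour dose response in 96-well plates. Here, GI50 denotes the concentration required for 50% inhibition of growth. TGI is the concentration that stops growth completely.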

Tests used:
Experiment in all cases: DTP human tumour cell line panel, 48 h
A549 NSCLC = test system: A549 NSCLC
DU-145 prostate = test system: DU-145 prostate
EKVX NSCLC = test system: EKVX NSCLC
HT29 colon = test system: HT29 colon
M14 melanoma = test system: M14 melanoma
NCI-H226 lung = test system: NCI-H226 lung
OVCAR-3 ovarian = test system: OVCAR-3 ovarian
OVCAR-4 ovarian = test system: OVCAR-4 ovarian
OVCAR-8 ovarian = test system: OVCAR-8 ovarian
RPMI-8226 leukemia = test system: RPMI-8226 leukemia

SMILES	GI50 (A549 NSCLC)	TGI (A549 NSCLC)	GI50 (DU-145 prostate)	TGI (DU-145 prostate)	GI50 (EKVX NSCLC)	TGI (EKVX NSCLC)	GI50 (HT29 colon)	TGI (HT29 colon)	GI50 (M14 melanoma)	TGI (M14 melanoma)	GI50 (NCI-H226 lung)	TGI (NCI-H226 lung)	GI50 (OVCAR-3 ovarian)	TGI (OVCAR-3 ovarian)	GI50 (OVCAR-4 ovarian)	TGI (OVCAR-4 ovarian)	GI50 (OVCAR-8 ovarian)	TGI (OVCAR-8 ovarian)	GI50 (RPMI-8226 leukemia)	TGI (RPMI-8226 leukemia)
C=C1C(=O)O[C@H]2[C@H]1CC/C(Cn1cc(Cn3ccc4cc(Cl)ccc43)nn1)=C\CC[C@@]1(C)O[C@@H]21	10.2 µM	24.8 µM	1.55 µM	2.89 µM	1.73 µM	3.78 µM	1.83 µM	4.46 µM	1.65 µM	3.63 µM	1.59 µM	3.03 µM	1.48 µM	2.83 µM	1.53 µM	3.02 µM	1.66 µM	3.57 µM	0.796 µM	3.03 µM
COc1ccc2c(c1)C(=O)c1c-2c(N2CCN(C(=O)CN(C)C)CC2)nc2ccccc12	13.8 µM	37 µM	14.8 µM	35.2 µM	17.7 µM	41.5 µM	2.13 µM	12.7 µM	15.6 µM	31.5 µM	35.7 µM	> 100 µM	19.5 µM	58.6 µM	13 µM	29.5 µM	24.7 µM	> 100 µM	10.7 µM	28.6 µM
COc1cc2c3c(n(CCCn4ccnc4)c(=O)c2cc1OC)-c1ccccc1C3=O	< 0.0337 µM	0.413 µM	< 0.0209 µM	–	0.833 µM	> 100 µM	< 0.0406 µM	0.603 µM	< 0.0171 µM	0.116 µM	0.05 µM	0.983 µM	< 0.0471 µM	0.484 µM	0.468 µM	22.4 µM	0.0584 µM	4.84 µM	< 0.0171 µM	0.355 µM
O=C(/C=C/c1ccc2c(c1)OCO2)c1ccccc1	18.7 µM	49 µM	10.2 µM	22.1 µM	15.1 µM	31.1 µM	–	–	13.2 µM	29.8 µM	23.4 µM	78.5 µM	4.71 µM	17.9 µM	24.8 µM	> 100 µM	17.4 µM	58.5 µM	4.84 µM	> 100 µM
O=[N+]([O-])c1ccccc1/C=C/C=C1c2ccccc2-c2ccccc21	> 100 µM	> 100 µM	> 100 µM	> 100 µM	> 100 µM	> 100 µM	> 100 µM	> 100 µM	> 100 µM	> 100 µM	> 100 µM	> 100 µM	> 100 µM	> 100 µM	> 100 µM	> 100 µM	> 100 µM	> 100 µM	> 100 µM	> 100 µM
O=C1OC2(c3ccccc31)c1cc(I)c(O)c(I)c1Oc1c2cc(I)c(O)c1I	–	> 100 µM	–	> 100 µM	–	> 100 µM	–	> 100 µM	–	> 100 µM	–	> 100 µM	–	> 100 µM	–	> 100 µM	–	> 100 µM	–	> 100 µM
Nc1nc(F)nc2c1ncn2C1OC(COP(=O)(O)O)C(O)C1O (configuration not stated)	–	511 µM	–	124 µM	–	406 µM	–	> 1250 µM	–	66.7 µM	–	599 µM	–	546 µM	–	987 µM	–	196 µM	–	855 µM
CC1=C([Se]CC(OC(=O)[C@@H](CSSC(C)(C)C)NC(=O)C(C)(C)C)C(=O)NCCCCCC(=O)OCc2ccccc2)C(=O)c2ccccc2C1=O (some centres not stated)	2.11 µM	5.42 µM	2.13 µM	4.51 µM	2.24 µM	5.41 µM	2.69 µM	7.34 µM	2.05 µM	4.04 µM	2.36 µM	4.63 µM	1.87 µM	3.38 µM	1.58 µM	2.97 µM	2.01 µM	3.78 µM	2.33 µM	6.74 µM
CC(=O)NC(Cc1c[nH]c2ccccc12)C(=O)O (configuration not stated)	–	> 100 µM	–	> 100 µM	–	> 100 µM	–	> 100 µM	–	> 100 µM	–	> 100 µM	–	> 100 µM	–	> 100 µM	–	> 100 µM	–	> 100 µM
O=C(CSc1nc2sc3c(c2c(=O)n1-c1ccccc1)CCCCC3)N/N=C/c1ccc(F)cc1	2.48 µM	10.8 µM	1.24 µM	4.3 µM	11.3 µM	41.7 µM	2.4 µM	7.04 µM	5.72 µM	> 100 µM	2.09 µM	4.84 µM	1.78 µM	4.07 µM	0.671 µM	2.46 µM	1.58 µM	5.19 µM	29.5 µM	> 100 µM
COc1ccc(/C(Cl)=C(\C=O)c2cc(OC)c(OC)c(OC)c2)cc1OC	–	> 100 µM	–	> 100 µM	–	> 100 µM	–	87.7 µM	–	> 100 µM	–	70.6 µM	–	> 100 µM	–	> 100 µM	–	> 63.5 µM	–	77 µM
O=C1C=CC(=O)N1c1ccc2c(c1)Cc1cc(NC(=O)C(F)(F)F)ccc1-2	–	34.5 µM	–	30.5 µM	–	29.3 µM	–	25.5 µM	–	44 µM	–	17.6 µM	–	31.2 µM	–	31.2 µM	–	34.6 µM	–	14.3 µM
COc1cc(C(=O)O)ccc1NC(=O)[C@@H]1N[C@@H](CC(C)(C)C)[C@](C#N)(c2ccc(Cl)cc2F)[C@H]1c1cccc(Cl)c1F	0.138 µM	8.21 µM	5.24 µM	30.4 µM	6.51 µM	24 µM	3.39 µM	22.2 µM	3.18 µM	> 30.1 µM	0.0941 µM	1.71 µM	1.77 µM	4.3 µM	4.56 µM	29.6 µM	4.08 µM	23 µM	2.51 µM	> 22.9 µM
N#Cc1c(SCc2ccccc2)nc2[nH]c(=S)[nH]c(=S)c2c1-c1ccco1	64.1 µM	> 100 µM	54 µM	> 100 µM	17 µM	> 100 µM	> 100 µM	> 100 µM	> 100 µM	> 100 µM	15.1 µM	52.8 µM	25.8 µM	73.5 µM	> 100 µM	> 100 µM	67.9 µM	> 100 µM	2.22 µM	13.9 µM
O=C(c1cccs1)c1c(C(F)(F)F)n([O-])c2cc(C(F)(F)F)ccc2[n+]1=O	0.242 µM	0.69 µM	0.179 µM	0.326 µM	0.251 µM	0.625 µM	0.193 µM	0.419 µM	0.554 µM	1.19 µM	0.647 µM	1.71 µM	0.333 µM	0.704 µM	–	–	0.263 µM	1.48 µM	0.211 µM	0.59 µM
O=C1C(Br)=C(c2ccccc2)C(c2ccccc2)=C1c1ccccc1	–	28.1 µM	–	25.9 µM	–	18 µM	–	5.15 µM	–	4.46 µM	–	21.8 µM	–	6.37 µM	–	4.98 µM	–	4.46 µM	–	5.22 µM
COc1cc(/C=C2\C[C@H]3[C@@H]4CC=C5C[C@@H](OC(C)=O)CC[C@]5(C)[C@H]4CC[C@]3(C)[C@H]2OC(C)=O)ccc1OCCCn1ccnc1	8.45 µM	20.4 µM	9.14 µM	18.7 µM	9.49 µM	20 µM	18.5 µM	> 50 µM	8.85 µM	16.6 µM	7.78 µM	24.6 µM	12.3 µM	26.2 µM	–	–	10.7 µM	24.7 µM	0.515 µM	1.77 µM
CCCCCCCCO/N=C\c1c2c(O)c3c(O)c(C)c4c(c3c1O)C(=O)C(C)(O/C=C\C(OC)C(C)C(OC(C)=O)C(C)C(O)C(C)C(O)C(C)/C=C\C=C(\C)C(=O)N2)O4 (configuration not stated)	1.73 µM	6.42 µM	1.8 µM	6.93 µM	1.43 µM	6.59 µM	–	–	1.57 µM	5.4 µM	2.05 µM	9.71 µM	0.96 µM	2.18 µM	1.61 µM	5.58 µM	1.75 µM	6.97 µM	2.21 µM	8.43 µM
CC(=O)O[C@H]1C(=O)[C@@]2(C)[C@H]([C@H](OC(=O)c3ccccc3)[C@]3(O)C[C@H](OC(=O)[C@H](OC(=O)CCC(=O)OC4CCC(S/N=C(N)/N=C(\N)N(C)C)CC4)[C@@H](NC(=O)c4ccccc4)c4ccccc4)C(C)=C1C3(C)C)[C@]1(OC(C)=O)CO[C@@H]1C[C@@H]2O (some centres not stated)	0.0084 µM	> 50 µM	0.0135 µM	> 50 µM	0.0269 µM	> 50 µM	< 0.005 µM	> 50 µM	–	–	23.4 µM	> 50 µM	0.0112 µM	> 50 µM	0.0444 µM	> 50 µM	0.0221 µM	> 50 µM	0.00605 µM	> 43.5 µM
O=C1NC(=O)[C@H]2C3C=CC([C@@H]12)[C@@H]1C(=O)NC(=O)[C@H]31	–	> 100 µM	–	> 100 µM	–	> 100 µM	–	–	–	> 100 µM	–	> 100 µM	–	> 100 µM	–	–	–	> 100 µM	–	> 100 µM
